Source: US20040076968A1, “Method for detecting pre-disposition to hepatotoxicity” (priority 2000, published 2004)

Test system: UGT1A7 gene
Test: Association of UGT1A7 polymorphisms with liver function abnormality in tolcapone-treated patients (case-control genotyping)
Assay type: in vivo, human
Excerpt: Disease severity had already been controlled for by the original study inclusion criteria.
For all other single nucleotide polymorphisms (SNPs) discovery and genotyping was done by double-stranded DNA sequencing using an ABI capillary sequencer and Big Dye chemistry (ABI). The primers used to amplify all exons are shown below and were also used as sequencing primers. Publicly available genomic sequences were used as references for primer design. All polymorphisms were targeted with these pairs-of-primer sets:
Fourty nanograms of genomic DNA were PCR-amplified in 50 μl reactions using an automated PCR machine. Reaction conditions varied as follows. For the amplification of the UGT1A6-fragment conditions were as follows: 10 mM Tris pH 8.3, 50 mM KCl, 1.5 mM MgCl2, 0.2 mM of each dNTP, 0.4 μM of each primer and 1.5U Boehringer Taq Polymerase. The thermocycling protocol consisted of an initial incubation of 95° C. for 15 min. followed by 35 cycles of 94° C. for 1 min., 57° C. for 30 sec., 72° C. for 1 min., and one final extension step of 72° C. for 10 min. The UGT1A7-1 fragment was amplified using Qiagen PCR buffer with 1.5 mM MgCl2, 0.2 mM of each dNTP, 0.4 μM of each primer and 1.5U Boehringer Taq Polymerase. The thermocycling protocol was the same as for UGT1A6-fragment with one exception: the annealing temperature was 61° C. For UGT1A7-2 fragment PCR conditions were as follows: 150 mM Tris pH 8.5, 15 mM (NH4)2SO4, 3.5 mM MgCl2, 0.2 mM of each dNTP, 0.4 μM of each primer and 1.5U Qiagen Hot Start Taq Polymerase. Thermocycling was done using a touch-down PCR protocol. After an iniatial amplification of 95° C. for 10 min. followed 5 cycles of 95° C. for 1 min., 62° C. for 30 sec. (minus 0.5° C. per cycle), 72° C. for 1 min and thirty cycles of 95° C. for 1 min., 60° C. for 30 sec., 72° C. for 1 min. and a final extension step of 72° C. for 10 min. After PCR amplification fragments were purified using the Qiaquick PCR purification kit on a Biorobot 9600. Cycle sequencing was performed on an automated PCR machine using ABI Big Dye terminator chemistry according to the manufacturer's intruction with the following changes: 2.5-5 ng/100 bp of PCR product were mixed with 2 μl Big Dye terminatior mix, oligonucleotide primer concentration was 10 pmol, if necessary 5% DMSO was added to the reaction; the final reaction volume was 10 μl. Sequencing reactions were subjected to 28 cycles at 93° C. for 30 sec, 48° C. for 30 sec, and 58° C. for 120 sec., followed by an ethanol/NaOAc precipitation. After decanting the ethanol, samples were evaporated to dryness using a SpeedVac for 2 min. and were resuspended in 45 μl ultrapure water (MERCK, HPLC grade). […] were loaded on an ABI 3700 capillary sequencer using POP5 as a polymer. After sequencing, the polymorphism analyses were done using Polyphred software (licenced from University of Washington).
The patient samples were divided into two groups.
For each genotype, the following analyses were performed:
a) Analysis of the entire genotype: patients were classified according to the following three categories: homozygous 1/1 (two copies of allele 1 and no copies of allele 2), heterozygous 1/2 (one copy of allele 1 and one copy of allele 2) or homozygous 2/2 (no copies of allele 1 and two copies of allele 2). Analysis was conducted to assess whether there were differences in the proportion of case patients in each of these groups, compared with the proportion of control patients. The Cochran-Maentel-Hanszel (CMH) test was applied to the data presented in a 2-by-3 table (the two columns indicating presence or absence of liver function abnormality and the three rows indicating the three categories of the genotype).

n (%) of patients (UGT1A7_197 C/G, Allele A Absent, Liver Function Abnormality Absent): 125 (46.5%) | n (%) of patients (UGT1A7_197 C/G, Allele A Absent, Liver Function Abnormality Present): 46 (34.6%) | n (%) of patients (UGT1A7_197 C/G, Allele A Present, Liver Function Abnormality Absent): 144 (53.5%) | n (%) of patients (UGT1A7_197 C/G, Allele A Present, Liver Function Abnormality Present): 87 (65.4%) | n (%) of patients (UGT1A7_197 C/G, Allele C Absent, Liver Function Abnormality Absent): 32 (11.9%) | n (%) of patients (UGT1A7_197 C/G, Allele C Absent, Liver Function Abnormality Present): 25 (18.8%) | n (%) of patients (UGT1A7_197 C/G, Allele C Present, Liver Function Abnormality Absent): 237 (88.1%) | n (%) of patients (UGT1A7_197 C/G, Allele C Present, Liver Function Abnormality Present): 108 (81.2%) | n (%) of patients (UGT1A7_197 C/G, Genotype Heterozygous A/C, Liver Function Abnormality Absent): 112 (41.6%) | n (%) of patients (UGT1A7_197 C/G, Genotype Heterozygous A/C, Liver Function Abnormality Present): 62 (46.6%) | n (%) of patients (UGT1A7_197 C/G, Genotype Homozygous A/A, Liver Function Abnormality Absent): 32 (11.9%) | n (%) of patients (UGT1A7_197 C/G, Genotype Homozygous A/A, Liver Function Abnormality Present): 25 (18.8%) | n (%) of patients (UGT1A7_197 C/G, Genotype Homozygous C/C, Liver Function Abnormality Absent): 125 (46.5%) | n (%) of patients (UGT1A7_197 C/G, Genotype Homozygous C/C, Liver Function Abnormality Present): 46 (34.6%) | n (%) of patients (UGT1A7_551 Asn129Lys, Allele G Absent, Liver Function Abnormality Absent): 49 (18.2%) | n (%) of patients (UGT1A7_551 Asn129Lys, Allele G Absent, Liver Function Abnormality Present): 14 (10.6%) | n (%) of patients (UGT1A7_551 Asn129Lys, Allele G Present, Liver Function Abnormality Absent): 220 (81.8%) | n (%) of patients (UGT1A7_551 Asn129Lys, Allele G Present, Liver Function Abnormality Present): 118 (89.4%) | n (%) of patients (UGT1A7_551 Asn129Lys, Allele T Absent, Liver Function Abnormality Absent): 96 (35.7%) | n (%) of patients (UGT1A7_551 Asn129Lys, Allele T Absent, Liver Function Abnormality Present): 59 (44.7%) | n (%) of patients (UGT1A7_551 Asn129Lys, Allele T Present, Liver Function Abnormality Absent): 173 (64.3%) | n (%) of patients (UGT1A7_551 Asn129Lys, Genotype Heterozygous G/T, Liver Function Abnormality Absent): 124 (46.1%) | n (%) of patients (UGT1A7_551 Asn129Lys, Genotype Heterozygous G/T, Liver Function Abnormality Present): 59 (44.7%) | n (%) of patients (UGT1A7_551 Asn129Lys, Genotype Homozygous G/G, Liver Function Abnormality Absent): 96 (35.7%) | n (%) of patients (UGT1A7_551 Asn129Lys, Genotype Homozygous G/G, Liver Function Abnormality Present): 59 (44.7%) | n (%) of patients (UGT1A7_551 Asn129Lys, Genotype Homozygous T/T, Liver Function Abnormality Absent): 49 (18.2%) | n (%) of patients (UGT1A7_551 Asn129Lys, Genotype Homozygous T/T, Liver Function Abnormality Present): 14 (10.6%) | n (%) of patients (UGT1A7_555 silent or Arg131Lys, Allele A Absent, Liver Function Abnormality Absent): 49 (18.2%) | n (%) of patients (UGT1A7_555 silent or Arg131Lys, Allele A Absent, Liver Function Abnormality Present): 14 (10.6%) | n (%) of patients (UGT1A7_555 silent or Arg131Lys, Allele A Present, Liver Function Abnormality Absent): 220 (81.8%) | n (%) of patients (UGT1A7_555 silent or Arg131Lys, Allele A Present, Liver Function Abnormality Present): 118 (89.4%) | n (%) of patients (UGT1A7_555 silent or Arg131Lys, Allele C Absent, Liver Function Abnormality Absent): 96 (35.7%) | n (%) of patients (UGT1A7_555 silent or Arg131Lys, Allele C Absent, Liver Function Abnormality Present): 58 (43.9%) | n (%) of patients (UGT1A7_555 silent or Arg131Lys, Allele C Present, Liver Function Abnormality Absent): 173 (64.3%) | n (%) of patients (UGT1A7_555 silent or Arg131Lys, Allele C Present, Liver Function Abnormality Present): 74 (56.1%) | n (%) of patients (UGT1A7_555 silent or Arg131Lys, Genotype Heterozygous A/C, Liver Function Abnormality Absent): 124 (46.1%) | n (%) of patients (UGT1A7_555 silent or Arg131Lys, Genotype Heterozygous A/C, Liver Function Abnormality Present): 60 (45.5%) | n (%) of patients (UGT1A7_555 silent or Arg131Lys, Genotype Homozygous A/A, Liver Function Abnormality Absent): 96 (35.7%) | n (%) of patients (UGT1A7_555 silent or Arg131Lys, Genotype Homozygous A/A, Liver Function Abnormality Present): 58 (43.9%) | n (%) of patients (UGT1A7_555 silent or Arg131Lys, Genotype Homozygous G/G, Liver Function Abnormality Absent): 49 (18.2%) | n (%) of patients (UGT1A7_555 silent or Arg131Lys, Genotype Homozygous G/G, Liver Function Abnormality Present): 14 (10.6%) | n (%) of patients (UGT1A7_556 Arg131Lys or Gln, Allele A Absent, Liver Function Abnormality Absent): 49 (18.3%) | n (%) of patients (UGT1A7_556 Arg131Lys or Gln, Allele A Absent, Liver Function Abnormality Present): 14 (10.6%) | n (%) of patients (UGT1A7_556 Arg131Lys or Gln, Allele A Present, Liver Function Abnormality Absent): 219 (81.7%) | n (%) of patients (UGT1A7_556 Arg131Lys or Gln, Allele A Present, Liver Function Abnormality Present): 118 (89.4%) | n (%) of patients (UGT1A7_556 Arg131Lys or Gln, Allele G Absent, Liver Function Abnormality Absent): 96 (35.8%) | n (%) of patients (UGT1A7_556 Arg131Lys or Gln, Allele G Absent, Liver Function Abnormality Present): 59 (44.7%) | n (%) of patients (UGT1A7_556 Arg131Lys or Gln, Allele G Present, Liver Function Abnormality Absent): 172 (64.2%) | n (%) of patients (UGT1A7_556 Arg131Lys or Gln, Allele G Present, Liver Function Abnormality Present): 73 (55.3%) | n (%) of patients (UGT1A7_556 Arg131Lys or Gln, Genotype Heterozygous A/G, Liver Function Abnormality Absent): 123 (45.9%) | n (%) of patients (UGT1A7_556 Arg131Lys or Gln, Genotype Heterozygous A/G, Liver Function Abnormality Present): 59 (44.7%) | n (%) of patients (UGT1A7_556 Arg131Lys or Gln, Genotype Homozygous A/A, Liver Function Abnormality Absent): 96 (35.8%) | n (%) of patients (UGT1A7_556 Arg131Lys or Gln, Genotype Homozygous A/A, Liver Function Abnormality Present): 44 (33.8%) | n (%) of patients (UGT1A7_556 Arg131Lys or Gln, Genotype Homozygous G/G, Liver Function Abnormality Absent): 49 (18.3%) | n (%) of patients (UGT1A7_556 Arg131Lys or Gln, Genotype Homozygous G/G, Liver Function Abnormality Present): 14 (10.6%) | n (%) of patients (UGT1A7_786 Trp208Arg, Allele G Absent, Liver Function Abnormality Absent): 124 (46.3%) | n (%) of patients (UGT1A7_786 Trp208Arg, Allele G Absent, Liver Function Abnormality Present): 46 (34.3%) | n (%) of patients (UGT1A7_786 Trp208Arg, Allele G Present, Liver Function Abnormality Absent): 144 (53.7%) | n (%) of patients (UGT1A7_786 Trp208Arg, Allele G Present, Liver Function Abnormality Present): 86 (65.7%) | n (%) of patients (UGT1A7_786 Trp208Arg, Allele T Absent, Liver Function Abnormality Absent): 30 (11.2%) | n (%) of patients (UGT1A7_786 Trp208Arg, Allele T Absent, Liver Function Abnormality Present): 26 (19.4%) | n (%) of patients (UGT1A7_786 Trp208Arg, Allele T Present, Liver Function Abnormality Absent): 238 (88.8%) | n (%) of patients (UGT1A7_786 Trp208Arg, Allele T Present, Liver Function Abnormality Present): 108 (80.6%) | n (%) of patients (UGT1A7_786 Trp208Arg, Genotype Heterozygous T/C, Liver Function Abnormality Absent): 114 (42.5%) | n (%) of patients (UGT1A7_786 Trp208Arg, Genotype Heterozygous T/C, Liver Function Abnormality Present): 62 (46.3%) | n (%) of patients (UGT1A7_786 Trp208Arg, Genotype Homozygous C/C, Liver Function Abnormality Absent): 30 (11.2%) | n (%) of patients (UGT1A7_786 Trp208Arg, Genotype Homozygous C/C, Liver Function Abnormality Present): 26 (19.4%) | n (%) of patients (UGT1A7_786 Trp208Arg, Genotype Homozygous T/T, Liver Function Abnormality Absent): 124 (46.3%) | n (%) of patients (UGT1A7_786 Trp208Arg, Genotype Homozygous T/T, Liver Function Abnormality Present): 46 (34.3%)
SMILES: Cc1ccc(C(=O)c2cc(O)c(O)c([N+](=O)[O-])c2)cc1 [tolcapone]
